Test system: iFA phenotype of mesenchymal-like cells on 13 kPa hydrogels
Test: iFA-prevention phenotypic high-content drug screen (iFA model)
Format: cell-based, human
Method: Mesenchymal-like cells were cultured on 13 kPa functionalized polyacrylamide gels that were prepared as follows. 187.5 μl of 40% acrylamide, 60 μl of 2% bis-acrylamide and 8.55 μl of sodium bisulfate in a final volume of 990 μl of water was incubated for 20 min at room temperature to degas the mixture. To this mixture, 0.10% ammonium persulfate and 0.15% TEMED were added, mixed and 100 μl of the solution was added onto a 0.4% 3-(Trimethoxysily) propyl methacrylate pH 3.5 treated coverslip. A 2% dimethyl dichlorosilane in chloroform treated round glass coverslip was then inverted on the acrylamide solution and allowed to polymerize for 15 min between the two surfaces. The top coverslip was gently removed, and the bottom coverslips with the hydrogel were transferred to appropriate multi-well low adherent tissue culture plate containing coupling buffer (0.1 M sodium phosphate dibasic, 0.1 M sodium phosphate monobasic) pH 8. To functionalize the hydrogel, 1 part of 0.1 M p-benzoquinone in dioxane was added to the hydrogels containing 4 parts of coupling buffer and incubated at 37° C. for 30 min. The gel was then successively washed with 20% dioxane in water, water, 0.1 M sodium acetate buffer at pH 4.0 containing 1.0 M sodium chloride, 0.1 M sodium bicarbonate solution at pH 8.5 containing 1.0 M sodium chloride, and finally with coupling buffer at pH 7.5. The hydrogels were then coated with 0.1% gelatin for 2 hrs prior to seeding the cells. Cells were seeded at a density of 3000 cells/cm^2.
A phenotypic high-content drug screen was prepared to identify compounds capable of preventing the iFA phenotype in a 96-well format. An ImageXpress XL high-throughput imager with a 4× Plan objective (N/A 0.20) was used with image based focusing. Briefly, 100 μL media were plated in each well of 96 well plate using a Thermo Multidrop non-contact dispenser. Using a custom V&P pin tool mounted to a Beckman FX liquid handler, 1.5 μL compounds or DMSO were added. Mesenchymal-like cells were added as a suspension using the Multidrop at a density of 3.5×10^3 cells/well. The resulting compound concentration was 10 μM. Cells were imaged after 7 days of incubation at 37° C. and 5% CO2: A final of 0.5 μg/ml of Calcein AM and/or 10 μg/ml propidium iodide (viability dye) with 1 μg/ml Hoechst 33342 were added and imaged using the ImageXpress XL system. Data mining was performed using a custom module consisting of the following steps: The image background was removed using a top-hat filter with 25 μm round shape polisher. Next, cellular aggregates and individual spindle-shaped cells were identified. Aggregates of cells were defined by size with a cut-off of 60 to 200 micron and an intensity of at least 200 gray scales over background. Individual spindle-shaped cells were identified as smaller objects with cut-offs from 15 to 100 micron and a lower intensity of at least 70 gray scales over background.
Additional morphometric measurements were made by counting labeled cell nuclei and measuring total area covered with cells per well. The data resulting from the screen were batch exported through MetaXpress and uploaded into a Collaborative Drug Discovery (CDD) cloud based database (Ekins and Bunin, 2013, Methods in molecular biology 993, 139-154.). Hits were selected on a cut-off of more than 3 standard deviations from mean using data normalized to reference wells in each plate. IC50 values (the half maximal inhibitory concentration) from confirmation experiments were calculated from dose-response signal curves using the Prism software (GraphPad Software).
Signal-to-background (S/B) ratio, standard variation and variation coefficients were calculated as the signal of DMSO treated wells divided by the signal of the hit compound (AA5) treated wells. […]

**Q.** Which results are given for `Cc1c(C(=O)Nc2nc3ccccc3s2)sc2nc3cc4c(cc3cc12)OCO4` [AA5]?
**A.** Prevention of the iFA phenotype (0.6 μM-10 μM AA5, Calcein AM / Hoechst 33342 (FIG. 17A)): Full prevention of phenotype was seen at low micromolar concentrations; Dose response (20 point dose course, picomolar to millimolar): +++ (+++ = strong effect); IC50 (Homo sapiens, FIG. 16B, read-out: IC50 (dose response, iFA phenotype)): 900 nM; Efficacy in secondary screen (assay repeated with compound sourced commercially or from additional library materials): +++ (+++ = strong effect); Efficacy in primary screen (library compound plated with cells on day 1 on hydrogel, phenotype on day 7, 10 μM): +++ (+++ = strong effect)

Reference: patent US20200352918A1, “COMPOUNDS AND METHODS FOR TREATING OR PREVENTING FIBROSIS” (priority 2019, published 2020)
